Read-outs that look alike come from different tables or passages of the source.
How the values were obtained:
[1] = target: T1, preformed amyloid fibrils from TGFBIp611-633 G623R peptide (Homo sapiens, UniProt Q15582, G623R); experiment: Circular Dichroism assay (θ[218]), disaggregation of preformed amyloid fibrils; format: biochemical; details: for inhibition at 200000 µM / disruption of the β-sheet structure compared among the four osmolytes, CD: preformed fibrils; for inhibition at 200000 µM: read-out: % Inhibition (mean ± SD) n = 3, θ[218] of preformed amyloid fibrils, circular dichroism; for % Dissolution at final time point, CD: TGFBIp-G623R preformed fibrils, listed as taurine
T1 construct: The 23-amino acid long peptide (TGFBIp 611-633 c.623 G>R) from the 4th FAS1 domain; purchased Synpeptide Co Ltd, Shanghai, China; host or cells: synthetic peptide
T1 sequence (Q15582 611-633 G623R limits assumed): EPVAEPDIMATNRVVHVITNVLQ
Protocol: Circular Dichroism (CD) spectroscopy was performed to study the disaggregation of the preformed amyloid fibrils. […] The treatment solutions were studied by far UV-CD assay.
(§1) Circular Dichroism (CD) spectroscopy was performed to study the disaggregation of the preformed amyloid fibrils. The preformed amyloid fibrils were treated with taurine at a concentration of 200 mM and 320 mM in PBS buffer at pH 7.0 for 24 h, 48 h and 72 respectively. The treatment solutions were studied by far UV-CD assay.

[2] = target: T2, preformed amyloid fibrils from TGFBIp611-633 N622K peptide (Homo sapiens, UniProt Q15582, N622K); experiment: ThT fluorescence assay, dissolution of preformed amyloid fibrils; format: biochemical; details: TGFBIp-N622K preformed fibrils
T2 construct: purchased Synpeptide Co Ltd, Shanghai, China; host or cells: synthetic peptide
T2 sequence (Q15582 611-633 N622K limits assumed): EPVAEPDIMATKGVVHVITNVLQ
Protocol: (§2) The model peptides TGFBIp^611-633 G623R and TGFBIp^611-633 N622K were incubated in PBS for 24 hours for the TGFBIp^611-633 G623R peptide and 96 hours for the TGFBIp^611-633 N622K peptide, allowed to form uniform amyloid fibrils. The formation of amyloid fibrils was confirmed by (SEM) and CD spectroscopy.
The preformed amyloid fibrils were treated with taurine at a concentration of 200 mM and 320 mM for up to 72 hours, respectively. The preformed amyloid fibrils incubated with PBS were used as controls.
The samples were collected at 24 h, 48 h and 72 h after treatment for the TGFBIp^611-633 G623R peptides, and at 24 h, 48 h, 96 h and 144 h after treatment for the TGFBIp^611-633 N622K peptides. The samples were then treated with 30 μM ThT in PBS buffer at pH 5.5 in a 96-well microplate for ThT fluorescence assay. The microplate was excited at 445 nm and the resulting emission fluorescence at 485 nm was measured using a microplate reader.

[3] = target: T2, preformed amyloid fibrils from TGFBIp611-633 N622K peptide; experiment: Circular Dichroism assay, disaggregation of preformed amyloid fibrils; format: biochemical; details: TGFBIp-N622K preformed fibrils, listed as taurine
Protocol: as §2, §1

[4] = target: T3, TGFBIp 611-633 c.623 G>R fibrils (Homo sapiens, UniProt Q15582, G623R); experiment: Transmission Electron Microscopy of preformed fibrils; details: 72 hours treatment
T3 construct: The 23-amino acid long peptide (TGFBIp 611-633 c.623 G>R) from the 4th FAS1 domain; purchased Synpeptide Co Ltd, Shanghai, China; host or cells: synthetic peptide
Protocol: The disaggregation of preformed amyloid fibrils was also verified by TEM analysis as illustrated in FIG. 8B. Morphological analysis of the TGFBIp 611-633 c.623 G>R fibrils before and after treatment with osmolytes for 72 hours was investigated by Transmission electron microscopy (TEM) with a JEOL JEM-1010 transmission electron microscope using Digital Micrograph™ 1.81.78 for GMS 1.8.0 (Gatan, Pleasanton, Calif.) at the Singhealth-core Electron Microscopy facility. 10 μl of amyloid fibril samples with and without osmolyte treatment were applied onto Formvar-carbon coated 300-mesh-size nickel grids. The samples were stained with Uranyl acetate solution, washed, dried, and observed at magnifications 8000-50000× at 80 kV.

[5] = target: T4, TGFBIp611-633 N622K peptide (Homo sapiens, UniProt Q15582, N622K); experiment: ThT fluorescence assay, inhibition of amyloid fibrillation; format: biochemical; details: TGFBIp-N622K, final time point
T4 construct: The TGFBIp^611-633 N622K peptides were treated with 200 mM and 320 mM of taurine; purchased Synpeptide Co Ltd, Shanghai, China; host or cells: synthetic peptide
Protocol: The TGFBIp^611-633 G623R peptides were treated with 200 mM and 320 mM of taurine for up to 72 hours, respectively, the results of which are illustrated in FIG. 11. The TGFBIp^611-633 N622K peptides were treated with 200 mM and 320 mM of taurine for up to 240 hours, respectively, the results of which are illustrated in FIG. 12. The peptides incubated with PBS were used as controls.
The peptide samples were collected at 24 h, 48 h and 72 h after treatment for TGFBIp^611-633 G623R peptides and at 120 h, 144 h and […] after treatment for the TGFBIp^611-633 N622K peptides. The samples were then treated with 30 μM ThT in PBS buffer at pH 5.5 in a 96-well microplate for ThT fluorescence assay. The microplate was excited at 445 nm and the resulting emission fluorescence at 485 nm was measured using a microplate reader.

[6] = target: T5, TGFBIp611-633 G623R peptide (Homo sapiens, UniProt Q15582, G623R); experiment: ThT fluorescence microscopy, inhibition of amyloid fibrillation
T5 construct: The 23-amino acid long peptide (TGFBIp 611-633 c.623 G>R) from the 4th FAS1 domain; purchased Synpeptide Co Ltd, Shanghai, China; host or cells: synthetic peptide
Protocol: The inhibitory effects of the four osmolytes on amyloid fibrillation of the TGFBIp^611-633 G623R peptide were investigated further by fluorescence microscopy after ThT staining. The peptide samples collected at various time points above were incubated ThT at a ratio of 1:1 ratio in the dark for 30 minutes to obtain solutions for fluorescence microscopy. 25 μl of the solutions were taken on to slides with coverslips and visualized under a fluorescent microscope (Axiolmager Z1, Carl Zeiss, Oberkochen, Germany).
The inhibition effect of taurine on the amyloid fibrillation was investigated further by fluorescence microscopy after ThT staining. The samples collected at the various time points above were incubated ThT at a ratio of 1:1 ratio in the dark for 30 minutes to obtain solutions for fluorescence microscopy. 25 μl of the solutions were taken on to slides with coverslips and visualized under a fluorescent microscope.

## NCCS(=O)(=O)O [Taurine, taurine]
[1]; 200 mM, 24 h
  inhibition at 200000 µM: 13 ± 6%
[1]; 200 mM, 48 h
  inhibition at 200000 µM: 40 ± 12%
[1]; 200 mM, 72 h
  inhibition at 200000 µM: ~54%
[1]; 200 mM
  disruption of the β-sheet structure compared among the four osmolytes, CD: highest disruption of the β-sheet structure
  % Dissolution at final time point, CD: 49%
[1]; 320 mM
  % Dissolution at final time point, CD: 69%
[2]; 200 mM
  % Dissolution at final time point, ThT: 83%
[2]; 200 mM, listed as taurine
  % Dissolution at final time point, ThT: 83%
[2]; 320 mM
  % Dissolution at final time point, ThT: 88%
[2]; 320 mM, listed as taurine
  % Dissolution at final time point, ThT: 88%
[3]; 200 mM
  % Dissolution at final time point, CD: 61%
[3]; 320 mM
  % Dissolution at final time point, CD: 66%
[4]
  TEM morphology of fibrils: reduction in density of ordered amyloid fibrils was evident
[5]; 200 mM
  inhibition at 200000 µM: 37%
[5]; 320 mM
  inhibition at 320000 µM: 76%
[6]; 200 mM and 320 mM
  fluorescent intensity under microscope: reduction in fluorescent intensity
[6]; 200 mM, 24 h to 72 h, versus PBS control
  ThT fluorescence images, fluorescent spots: relatively smaller fluorescent spots even after 24 h

## OC[C@H]1O[C@H](OC[C@H]2O[C@H](O[C@]3(CO)O[C@H](CO)[C@@H](O)[C@@H]3O)[C@H](O)[C@@H](O)[C@@H]2O)[C@H](O)[C@@H](O)[C@H]1O [Raffinose, raffinose]
[1]; 200 mM, 24 h
  inhibition at 200000 µM: 7 ± 7%
[1]; 200 mM, 48 h
  inhibition at 200000 µM: 48 ± 9%
[1]; 200 mM, 72 h
  inhibition at 200000 µM: ~58%
[1]; 200 mM
  disruption of the β-sheet structure compared among the four osmolytes, CD: highest disruption of the β-sheet structure
[4]
  TEM morphology of fibrils: reduction in density of ordered amyloid fibrils was evident

## C[N+](C)(C)CC(=O)O [Betaine, betaine]
[1]; 200 mM, 24 h
  inhibition at 200000 µM: 6 ± 1%
[1]; 200 mM, 48 h
  inhibition at 200000 µM: 24 ± 11%
[1]; 200 mM, 72 h
  inhibition at 200000 µM: 36%
[4]
  TEM morphology of fibrils: reduction in density of ordered amyloid fibrils was evident

## CNCC(=O)O [Sarcosine, sarcosine]
[1]; 200 mM, 24 h
  inhibition at 200000 µM: 12 ± 8%
[1]; 200 mM, 48 h
  inhibition at 200000 µM: 39 ± 6%
[1]; 200 mM, 72 h
  inhibition at 200000 µM: 41%
[4]
  TEM morphology of fibrils: reduction in density of ordered amyloid fibrils was evident
